From US20240391931A1 (Bristol-Myers Squibb Company, priority 2021, published 2024) come the findings set out here.

A word on the EC50: it is the concentration giving half of the maximal effect.

In test [1] the target is T1, HER2 wildtype (WT) protein (Homo sapiens, UniProt P04626).
T1 construct: BT474 and N87 cell lines which endogenously overexpress the HER2 wildtype (WT) protein; endogenous in cells; host or cells: BT474, N87
Kind of test: HER2 signaling (pHER2 Tyr1248/total HER2 MSD) in BT474 cells. Type of test: cell-based. The settings on record: 1.5 hr compound, 1% FBS. How it is done:
In addition to the engineered cell lines, the following cell lines were used: BT474 (human breast carcinoma), N87 (human gastric carcinoma), NCI-H1781 (human lung adenocarcinoma), and A431 (human epidermoid carcinoma); all cell lines were obtained from the American Type Culture Collection (ATCC, Manassas, VA). NCI-H1781 were grown in complete RPMI 1640 (Life Technologies, Carlsbad, CA) supplemented with 15% fetal bovine serum (FBS, Life Technologies, Carlsbad, CA) and 1% Penicillin-Streptomycin (P/S, Life Technologies, Carlsbad, CA). N87 cells were grown in complete RPMI 1640 supplemented with 10% FBS and 1% P/S. BT474 and A431 cells were grown in DMEM (Life Technologies, Carlsbad, CA) supplemented with 10% FBS and 1% P/S. All cells were maintained and propagated in a humidified 5% CO2 incubator at 37° C.
(§1) HER2 signaling was assessed in BT474 and N87 cell lines which endogenously overexpress the HER2 wildtype (WT) protein, in NCI-H1781 cells which endogenously expresses a HER2 mutant protein containing a VC insertion in the kinase domain (HER2VC or G776delinsVC), and in engineered cell lines transduced to express the Her2 mutant protein containing the YVMA insertion (Hek293-HER2YVMA and BEAS2B-HER2YVMA).
(§2) BT474, N87, and NCI-H1781 were plated in 96-well tissue-culture treated plates (Corning Costar, Sigma-Aldrich) in full media and incubated overnight. Hek293-HER2YVMA and BEAS2B-HER2YVMA cells were plated in 96-well poly-D-lysine treated plates (BD Bioscience, San Jose, CA). For treatment with test compounds, the media was replaced with corresponding low serum media (1% FBS) containing test compound at 1.1, 0.37, 0.12, 0.041, 0.014, 0.005, 0.0014, 0.0005 μM or DMSO control (0.1%). Cells were incubated with compound for 1.5 hr at 37° C. After compound treatment, the media was removed and cells were lysed for 30 min on ice in complete MSD lysis buffer (prepared using MSD base lysis buffer (Meso-Scale Discovery) supplemented with cOmplete, EDTA-free Protease inhibitor cocktail (Roche), Phosphatase Inhibitor Cocktails 2 and 3 (Sigma-Aldrich), and 1 mM PMSF (Sigma-Aldrich)). Lysates were stored at −70° C. until further analysis.
(§3) HER2 signaling was evaluated using phospho (Tyr1248)/total ErbB2 whole cell lysate MSD plates (Meso-Scale Discovery, Gaithersburg, MD). The phospho HER2 signal was normalized to total HER2 for each sample; results are reported as % DMSO control. The normalized data was fitted using a sigmoidal curve analysis program (Graph Pad Prism version 6) with variable Hill slope to determine EC50 values.
The HER2 signaling results are provided in Table 4, under columns titled “BT474-pHER2 EC50”, “N87-pHER2 EC50”, and “NCI-H1781-pHER2 EC50”. Hek293-HER2YVMA ins fall under the heading “HEKYVMA-pHER2 EC50”, Ba/F3 HER2YVMA fall under the heading “Ba/F3 YVMA-pHER2 EC50” and BEAS2B-HER2YVMA fall under the heading “BEAS2B YVMA-pHER2 EC50”.

Test [2] addresses HER2YVMA (Homo sapiens, UniProt P04626, INS775YVMA). Put plainly: HER2 signaling (pHER2) in Hek293-HER2YVMA cells. Further details: expressed in transfected cells; host or cells: HEK293 (pool), Ba/F3 (clones), BEAS2B (clones); lentiviral vector pCDH-CMV-MCS-EF1-Neo. To be noted: 1.5 hr compound, 1% FBS, read-out: HEKYVMA pHER2 EC50. Type of test: cell-based. How it is done:
Cell culture, plasmid cloning, and lentiviral transduction were carried out according to standard procedures. The Human HER2 cDNA construct in pCMV6-Entry for the HER2 wildtype (WT) expression was obtained from Origene. The HER2 cDNA including the 12-nucleotide insertion corresponding to YVMA insertion (HER2YVMA) was codon optimized, synthesized and cloned by GenScript (Piscataway, NJ) in pcDNA3.1. The lentiviral constructs expressing HER2YVMA and HER2 WT were sub-cloned using PCR at System Biosciences (SBI, Mountainview, CA) into lentiviral vectors pCDH-CMV-MCS-EF1-Neo and lentiviral particles were generated.
Engineered lines expressing HER2YVMA and HER2 WT were prepared in HEK293 (human embryonic kidney cells), Ba/F3 (Interleukin 3 (IL3)-dependent murine pro B cell line), and BEAS2B (primary immortalized human bronchial epithelial cell line). Ba/F3, BEAS2B, and HEK293 cells were obtained from the American Type Culture Collection (ATCC, Manassas, VA). Parental Ba/F3 cells were grown in suspension in complete RPMI 1640 supplemented with 10% FBS and 1% P/S and 10 ng/ml interleukin 3 (IL3, Sigma-Aldrich). Hek293 and BEAS2B cells were grown as monolayers in DMEM supplemented with 10% FBS and 1% P/S. All cells were maintained and propagated in a humidified 5% CO2 incubator at 37° C.
To generate Ba/F3, BEAS2B, and Hek-293 cells engineered with lentivirus to express HER2 WT or HER2YVMA, the cells were transduced with lentiviruses at multiplicity of infection (MOI) of 1 or 10; transduced cells were selected and maintained with G418 ([…]) (Geneticin, Life Technologies, Carlsbad, CA). Ba/F3 engineered cells were subjected to gradual withdrawal of interleukin 3 (IL-3, Sigma-Aldrich). After selection, IL3 independent Ba/F3 HER2YVMA, and BEAS2B HER2YVMA cells were cloned by limiting dilution. Hek293 HER2YVMA cells were used as pool. HER2 and phospho HER2 levels were confirmed by flow cytometery and immunoassay (MSD, Meso-Scale Discovery, Rockville, Maryland).
as §1, §2, §3
The HER2 signaling results are provided in Table 4, under columns titled “BT474-pHER2 EC50”, “N87-pHER2 EC50”, and “NCI-H1781-pHER2 EC50”. […]

Structures are written as SMILES. A value given as a limit tells only on which side of the number the result lay.

T1 sequence (P04626 23-1255): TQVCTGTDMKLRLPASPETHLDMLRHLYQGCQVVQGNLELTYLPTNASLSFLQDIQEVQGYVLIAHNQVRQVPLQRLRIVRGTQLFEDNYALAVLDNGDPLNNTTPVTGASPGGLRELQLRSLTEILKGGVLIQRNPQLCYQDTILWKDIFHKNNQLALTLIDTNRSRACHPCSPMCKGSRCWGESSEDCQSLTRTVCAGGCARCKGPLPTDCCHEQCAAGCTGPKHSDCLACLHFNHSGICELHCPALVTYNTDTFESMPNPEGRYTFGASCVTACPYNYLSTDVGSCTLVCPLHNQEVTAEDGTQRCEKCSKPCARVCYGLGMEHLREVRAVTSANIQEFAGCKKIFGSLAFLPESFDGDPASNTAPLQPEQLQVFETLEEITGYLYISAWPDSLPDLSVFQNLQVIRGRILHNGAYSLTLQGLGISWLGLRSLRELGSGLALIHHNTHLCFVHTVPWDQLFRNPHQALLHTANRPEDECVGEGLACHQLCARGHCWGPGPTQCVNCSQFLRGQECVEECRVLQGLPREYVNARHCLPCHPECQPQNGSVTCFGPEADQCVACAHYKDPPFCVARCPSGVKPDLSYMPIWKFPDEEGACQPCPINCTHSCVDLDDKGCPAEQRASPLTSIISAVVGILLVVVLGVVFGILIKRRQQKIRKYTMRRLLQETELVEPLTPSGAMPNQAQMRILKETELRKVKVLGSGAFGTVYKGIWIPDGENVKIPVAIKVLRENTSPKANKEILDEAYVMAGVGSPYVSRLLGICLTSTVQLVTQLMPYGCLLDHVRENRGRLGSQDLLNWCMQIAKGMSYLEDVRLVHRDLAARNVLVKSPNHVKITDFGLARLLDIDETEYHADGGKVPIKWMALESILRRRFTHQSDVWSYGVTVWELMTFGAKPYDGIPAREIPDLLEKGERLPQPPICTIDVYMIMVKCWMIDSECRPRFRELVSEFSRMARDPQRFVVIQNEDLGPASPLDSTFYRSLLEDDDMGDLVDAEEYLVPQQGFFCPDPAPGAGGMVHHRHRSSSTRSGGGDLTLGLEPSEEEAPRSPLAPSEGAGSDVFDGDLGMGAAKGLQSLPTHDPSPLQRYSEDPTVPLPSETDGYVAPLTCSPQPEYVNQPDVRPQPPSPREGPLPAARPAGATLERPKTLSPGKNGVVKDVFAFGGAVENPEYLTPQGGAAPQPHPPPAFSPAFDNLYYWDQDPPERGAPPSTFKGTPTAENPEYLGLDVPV
HER2YVMA, sequence (P04626 with tags, fused parts or gaps INS775YVMA): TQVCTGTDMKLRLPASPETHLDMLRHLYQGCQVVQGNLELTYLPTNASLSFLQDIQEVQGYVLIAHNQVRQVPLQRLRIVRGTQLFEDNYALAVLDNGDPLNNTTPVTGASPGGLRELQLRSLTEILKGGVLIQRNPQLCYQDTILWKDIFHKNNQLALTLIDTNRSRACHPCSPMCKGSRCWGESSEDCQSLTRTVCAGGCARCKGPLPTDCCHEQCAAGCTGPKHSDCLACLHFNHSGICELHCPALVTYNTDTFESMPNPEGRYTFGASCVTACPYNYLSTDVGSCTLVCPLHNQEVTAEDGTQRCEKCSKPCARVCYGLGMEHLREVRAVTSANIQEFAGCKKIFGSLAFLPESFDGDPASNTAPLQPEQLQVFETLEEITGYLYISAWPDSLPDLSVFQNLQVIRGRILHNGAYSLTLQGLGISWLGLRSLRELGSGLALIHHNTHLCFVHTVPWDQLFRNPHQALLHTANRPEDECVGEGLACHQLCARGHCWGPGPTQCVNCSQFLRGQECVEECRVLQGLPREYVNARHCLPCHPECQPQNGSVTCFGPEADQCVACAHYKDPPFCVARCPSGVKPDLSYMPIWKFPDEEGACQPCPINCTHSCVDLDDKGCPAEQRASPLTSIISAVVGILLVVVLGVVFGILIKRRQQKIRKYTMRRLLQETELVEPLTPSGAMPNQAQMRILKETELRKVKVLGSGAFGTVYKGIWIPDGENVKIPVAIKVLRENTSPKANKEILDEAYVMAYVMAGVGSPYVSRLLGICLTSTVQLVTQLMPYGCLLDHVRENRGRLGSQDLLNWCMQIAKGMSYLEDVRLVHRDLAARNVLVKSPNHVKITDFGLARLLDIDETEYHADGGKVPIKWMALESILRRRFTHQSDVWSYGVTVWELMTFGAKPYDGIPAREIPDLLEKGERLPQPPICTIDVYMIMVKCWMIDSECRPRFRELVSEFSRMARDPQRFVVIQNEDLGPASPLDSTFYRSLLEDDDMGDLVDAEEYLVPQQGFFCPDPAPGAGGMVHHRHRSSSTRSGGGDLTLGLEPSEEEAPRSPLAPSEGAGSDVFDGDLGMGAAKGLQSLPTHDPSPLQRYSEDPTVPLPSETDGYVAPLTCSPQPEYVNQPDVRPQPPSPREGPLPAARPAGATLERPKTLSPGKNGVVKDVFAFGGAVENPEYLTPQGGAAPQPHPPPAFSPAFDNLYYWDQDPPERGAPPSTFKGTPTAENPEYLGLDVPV

Take `Cc1ccc(Oc2ccc(Nc3ncnc4sc5c(c34)CCN(C(=O)/C=C/CN3CCO[C@@H](CO)C3)C5)cc2C)cn1` [Compound 144]: the EC50 in test [1] is below 100 nM; in test [2], 100 to 350 nM.

Consider `Cc1nc2cc(Oc3ccc(Nc4ncnc5sc6c(c45)CCN(C(=O)/C=C/CN(C)C)C6)cc3C)ccn2n1` [Compound 127, (E)-4-(dimethylamino)-1-(4-((3-methyl-4-((2-methyl-[1,2,4]triazolo[1,5-a]pyridin-7-yl)oxy)phenyl)amino)-5,6-dihydropyrido[4′,3′:4,5]thieno[2,3-d]pyrimidin-7(8H)-yl)but-2-en-1-one], for which the concentration giving a half-maximal response (EC50) in test [1] and in test [2] was below 100 nM in each case.

Regarding `Cc1ccc(Oc2ccc(Nc3ncnc4sc5c(c34)CCN(C(=O)/C=C/CN3CC4CC(C3)O4)C5)cc2C)cn1` [Compound 15], the half-maximal effective concentration (EC50) in test [1] and in test [2] was below 100 nM throughout.

With `Cc1cc(Nc2ncnc3sc4c(c23)CCN(C(=O)/C=C/CN2CCOCC2)C4)ccc1Oc1ccc2ncnn2c1` [Compound 12], the EC50 in test [1] and in test [2] was below 100 nM each time.

For the molecule `Cc1cc(Nc2ncnc3sc4c(c23)CCN(C(=O)/C=C/CN(C)C)C4)ccc1Oc1ccc(N(C)C)nc1` [Compound 158, (E)-4-(dimethylamino)-1-(4-((4-((6-(dimethylamino)pyridin-3-yl)oxy)-3-methylphenyl)amino)-5,8-dihydropyrido[4′,3′:4,5]thieno[2,3-d]pyrimidin-7(6H)-yl)but-2-en-1-one], the EC50 in test [1] and in test [2] was below 100 nM throughout.

On to `Cc1ccc(Oc2ccc(Nc3ncnc4sc5c(c34)CCN(C(=O)/C=C/CN3CC(C)(C)OC(C)(C)C3)C5)cc2C)cn1` [Compound 121], for which the half-maximal effective concentration (EC50) in test [1] and in test [2] was below 100 nM each time.

With `C=CC(=O)N1CCc2c(sc3ncnc(Nc4ccc(Oc5cccnc5)c(Cl)c4)c23)C1` [Compound 6, 1-(4-((3-chloro-4-(pyridin-3-yloxy)phenyl)amino)-5,8-dihydropyrido[4′,3′:4,5]thieno[2,3-d]pyrimidin-7(6H)-yl)prop-2-en-1-one], the EC50 in test [1] and in test [2] was below 100 nM each time.

With `COc1ccc(Oc2ccc(Nc3ncnc4sc5c(c34)CN(C(=O)/C=C/CN(C)C)C5)cc2C)cn1` [Compound 128, (E)-4-(dimethylamino)-1-(4-((4-((6-methoxypyridin-3-yl)oxy)-3-methylphenyl)amino)-5,7-dihydro-6H-pyrrolo[3′,4′:4,5]thieno[2,3-d]pyrimidin-6-yl)but-2-en-1-one], the concentration for a half-maximal effect (EC50) in test [1] and in test [2] was below 100 nM each time.

As to `Cc1cc(Nc2ncnc3sc4c(c23)CCN(C(=O)/C=C/CN(C)C)C4)ccc1Oc1ccn2ccnc2c1` [Compound 126, (E)-4-(dimethylamino)-1-(4-((4-(imidazo[1,2-a]pyridin-7-yloxy)-3-methylphenyl)amino)-5,8-dihydropyrido[4′,3′:4,5]thieno[2,3-d]pyrimidin-7(6H)-yl)but-2-en-1-one], the EC50 in test [1] and in test [2] was below 100 nM throughout.

Take `Cc1ccc(Oc2ccc(Nc3ncnc4sc5c(c34)C(C)CN(C(=O)C=CCN(C)C(C)(C)C)C5)cc2C)cn1` (single isomer, unassigned) [Compound 179]: the half-maximal effective concentration (EC50) in test [1] and in test [2] was below 100 nM each time.

Regarding `Cc1ccc(Oc2ccc(Nc3ncnc4sc5c(c34)CCN(C(=O)/C=C/CN(C)C)CC5)cc2Cl)cn1` [Compound 167, (E)-1-(4-((3-Chloro-4-((6-methylpyridin-3-yl)oxy)phenyl)amino)-8,9-dihydro-5H-pyrimido[5′,4′:4,5]thieno[2,3-d]azepin-7(6H)-yl)-4-(dimethylamino)but-2-en-1-one], the figures for the EC50 in test [1] and in test [2] were below 100 nM and 100 to 350 nM, respectively.

Take `COc1ccc(Oc2ccc(Nc3ncnc4sc5c(c34)C(C)CN(C(=O)/C=C/CN(C)C)C5)cc2C)cn1` (centres unmarked) [Compound 152, (E)-4-(dimethylamino)-1-(4-((4-((6-methoxypyridin-3-yl)oxy)-3-methylphenyl)amino)-5-methyl-5,8-dihydropyrido[4′,3′:4,5]thieno[2,3-d]pyrimidin-7(6H)-yl)but-2-en-1-one]: the half-maximal effective concentration (EC50) in test [1] and in test [2] was below 100 nM throughout.

On to `Cc1ccc(Oc2ccc(Nc3ncnc4sc5c(c34)CCN(C(=O)/C=C/CN3CCC[C@H](CO)C3)C5)cc2C)cn1` [Compound 155], for which the concentration for a half-maximal effect (EC50) in test [1] and in test [2] was below 100 nM throughout.

`Cc1cc(Nc2ncnc3sc4c(c23)CCN(C(=O)/C=C/CN(C)C)CC4)ccc1Oc1ccn2ccnc2c1` [Compound 172, (E)-4-(Dimethylamino)-1-(4-((4-(imidazo[1,2-a]pyridin-7-yloxy)-3-methylphenyl)amino)-8,9-dihydro-5H-pyrimido[5′,4′:4,5]thieno[2,3-d]azepin-7(6H)-yl)but-2-en-1-one]: the concentration giving a half-maximal response (EC50) in test [1] is below 100 nM; in test [2], 100 to 350 nM.

Regarding `Cc1ccc(Oc2ccc(Nc3ncnc4sc5c(c34)C(C)CN(C(=O)/C=C/CN(C)C(C)(C)C)C5)cc2C)cn1` (centres unmarked) [Compound 175], the EC50 in test [1] and in test [2] was below 100 nM each time.

For `COc1ccc(Oc2ccc(Nc3ncnc4sc5c(c34)CCN(C(=O)/C=C/CN3CC[C@@H](CO)C3)C5)cc2C)cn1` [Compound 143], the concentration giving a half-maximal response (EC50) in test [1] and in test [2] was below 100 nM throughout.

As to `Cc1ccc(Oc2ccc(Nc3ncnc4sc5c(c34)CCN(C(=O)/C=C/CN3CC4CCC3C4)C5)cc2C)cn1` (centres unmarked) [Compound 14], the EC50 in test [1] and in test [2] was below 100 nM in each case.

As to `Cc1ccc(Oc2ccc(Nc3ncnc4sc5c(c34)CN(C(=O)C=CCN(C)C)C5C)cc2C)cn1` (single isomer, unassigned) [Compound 170], the concentration giving a half-maximal response (EC50) in test [1] and in test [2] was 350 to 1000 nM each time.

As for `O=C(/C=C/CN1CCOCC1)N1CCc2c(sc3ncnc(Nc4ccc(Oc5ccc6ncnn6c5)c(Cl)c4)c23)C1` [Compound 18], the half-maximal effective concentration (EC50) in test [1] and in test [2] was below 100 nM each time.
